# System: Rats with chronic constriction nerve injury
# Assay: Analgesic effect in rats with chronic constriction nerve injury (von Frey filaments, 50% pain threshold)
# Assay type: in vivo, rat
# Conditions: oral, dose of 30 mg/kg or less, measured after 3 hours
# From the text: Analgesic Effect of Compounds in Rats with Chronic Constriction Nerve Injury
# Rats with chronic constriction nerve injury were produced by partially modifying the method of Mosconi and Kruger et al. [Pain, 1996, Vol. 64, p. 37-57] with slight modification.
# The sciatic nerve in the left posterior leg of male Crl:CD (SD) rats was exfoliated under pentobarbital anesthesia, and a polyethylene tube (trade name: Intramedic; size: PE-60; Becton Dickinson) having a length of 2 mm was wrapped over the site of exfoliation. On days 14 to 21 after the surgery, the rats were placed in an acrylic quadruple cage (width 900 mm×depth 210 mm×height 140 mm) with a wire mesh floor consisting 4 cages connected in a row. Pain evaluation was performed after at least 20 minutes to allow the rats to acclimate to the new environment.
# In pain evaluation, von Frey filaments (trade name: Touch Test Sensory Evaluator; Model: 58011; Muromachi Kikai Co., Ltd.) were used. The results were calculated as a pain thresholds. That is, by using a von Frey filament of different stimulus intensity, stimulation was given to the plantar surface of the injured side of rats with chronic constriction nerve injury, and the stimulus intensity to cause paw withdrawal response was obtained. […] 441-462]. The 50% pain thresholds of normal rats were 10 to 12 g on average.
# For the evaluation of test compounds, rats with 50% pain thresholds of less than 4 g were used. The test compounds were suspended in a 0.5% aqueous methyl cellulose solution, and orally administered at a volume of 5 mL/kg. After 3 hours, pain thresholds were measured using von Frey filaments.
row,Compound,pain thresholds (50% paw withdrawal thresholds)
1,"CCNc1ncc2c(n1)N1CCC[C@H]1CN(c1cccc(-c3nn(C)c(=O)o3)c1)C2=O [Compound 90, (S)-5-[3-(9-Ethylamino-6-oxo-2,3,3a,4-tetrahydro-1H,6H-5,8,10,10b-tetraazabenzo[e]azulen-5-yl)phenyl]-3-methyl-1,3,4-oxadiazol-2(3H)-one]",significantly increased pain thresholds
2,"CNc1ncc2c(n1)N1CCC[C@H]1CN(c1cccc(-c3nnn(C)n3)c1)C2=O [Compound 137, (S)-5-[3-(2-Methyl-2H-tetrazol-5-yl)phenyl]-9-methylamino-1,2,3,3a,4,5-hexahydro-5,8,10,10b-tetraazabenzo[e]azulen-6-one]",significantly increased pain thresholds
3,"CCNc1ncc2c(n1)N1CCCC1CN(c1cccc(-c3nnc(C)o3)c1)C2=O (stereo not shown) [Compound 20, 9-Ethylamino-5-[3-(5-methyl-[1,3,4]oxadiazol-2-yl)phenyl]-1,2,3,3a,4,5-hexahydro-5,8,10,10b-tetraazabenzo[e]azulen-6-one]",significantly increased pain thresholds
4,"CCNc1ncc2c(n1)N1CCCC1CN(c1cccc(-c3ccnc(Cl)c3)c1)C2=O (stereo not shown) [Compound 16, 5-[3-(2-Chloropyridin-4-yl)phenyl]-9-ethylamino-1,2,3,3a,4,5-hexahydro-5,8,10,10b-tetraazabenzo[e]azulen-6-one]",significantly increased pain thresholds
5,"CCNc1ncc2c(n1)N1CCC[C@H]1CN(c1cncc(-c3nnc(C)o3)c1)C2=O [Compound 43, (S)-9-Ethylamino-5-[5-(5-methyl-1,3,4-oxadiazol-2-yl)pyridin-3-yl]-1,2,3,3a,4,5-hexahydro-5,8,10,10b-tetraazabenzo[e]azulen-6-one]",significantly increased pain thresholds
6,"CNc1ncc2c(n1)N1CCC[C@H]1CN(c1cccc(-c3noc(C)n3)c1)C2=O [Compound 74, (S)-5-[3-(5-Methyl-1,2,4-oxadiazol-3-yl)phenyl]-9-methylamino-1,2,3,3a,4,5-hexahydro-5,8,10,10b-tetraazabenzo[e]azulen-6-one]",significantly increased pain thresholds
7,"CNc1ncc2c(n1)N1CCC[C@H]1CN(c1cccc(-c3nn(C)c(=O)o3)c1)C2=O [Compound 89, (S)-3-Methyl-5-[3-(9-methylamino-6-oxo-2,3,3a,4-tetrahydro-1H,6H-5,8,10,10b-tetraazabenzo[e]azulen-5-yl)phenyl]-1,3,4-oxadiazol-2(3H)-one]",significantly increased pain thresholds
8,"CCNc1ncc2c(n1)N1CCC[C@H]1CN(c1cccc(-c3noc(C)n3)c1)C2=O [Compound 72, (S)-9-Ethylamino-5-[3-(5-methyl-1,2,4-oxadiazol-3-yl)phenyl]-1,2,3,3a,4,5-hexahydro-5,8,10,10b-tetraazabenzo[e]azulen-6-one]",significantly increased pain thresholds

# System: chronic dermatitis model with repeated hapten applications
# Assay: Effects on pruritus in chronic dermatitis model with repeated hapten (oxazolone) applications
# Assay type: in vivo
# Conditions: 100 mg/kg oral, 1 hour before antigen application on day 16; BALB/c mice; ***P < 0.001, t-test vs control group
# From the text: Effects on Pruritus in Chronic Dermatitis Model with Repeated Hapten Applications
# A chronic dermatitis model with repeated hapten applications was produced by partially modifying the method of Kitagaki et al. [Journal of Investigative Dermatology, 1995, Vol. 105, p. 749-755].
# Oxazolone (Sigma-Aldrich) was used as hapten, and dissolved in acetone (Kanto Kagaku) to prepare a 0.5 w/v % oxazolone-acetone solution (antigen solution). BALB/c mice (6 weeks of age) were sensitized by a single application of the antigen solution (10 μL) to the shaved rostral back. […]
# Itch response of the mice on day 16 was analyzed by partially modifying the method of Kuraishi et al. [European journal of phamacology, 1995, Vol. 275, p. […]
# To allow the mice to acclimate to new environment, the mice were left in an acrylic observation cage (7.5×8×15 cm) for 1 hour. The mice were put back into the cage immediately after the application of the antigen solution to the rostral back, and the behavior of the mice was monitored unattended with an 8 mm video camera recorder. […] During the observation, scratching movements with the hind paws around the site of antigen solution application was counted. […] A series of these movements was counted as a single scratching movement.
row,Compound,The number of scratching movements during 1 hr after the hapten applications [counts]
1,"CCNc1ncc2c(n1)N1CCC[C@H]1CN(Cc1ccc(F)cc1F)C2=O [Compound 3, (S)-5-(2,4-Difluorobenzyl)-9-ethylamino-1,2,3,3a,4,5-hexahydro-5,8,10,10b-tetraazabenzo[e]azulen-6-one]",225±37
2,"CCNc1ncc2c(n1)N1CCC[C@H]1CN(CC1CCN(C(=O)c3ccco3)CC1)C2=O [Compound 35, (S)-9-Ethylamino-5-[1-(furan-2-carbonyl)piperidin-4-yl]methyl-1,2,3,3a,4,5-hexahydro-5,8,10,10b-tetraazabenzo[e]azulen-6-one]",84±33

# Source: patent US7998954B2, “Pyrimidodiazepinone derivative” (Kyowa Hakko Kirin Co., Ltd., priority 2007, dated 2011)
